Series [1] deals with HeLa. The series can be described thus: Dark toxicity in human HeLa cells assessed as reduction in cell viability. It is filed as cell-based.
Series [2] relates to HeLa. Briefly: Phototoxicity in human HeLa cells assessed as reduction in cell viability irradiated with UVA-LED measured after 60 mins. It is filed as cell-based. Particulars: 1 h.
Series [3] addresses Amyloid-beta precursor protein (Homo sapiens) (UniProt P05067). The series can be described thus: Photo-degradation of Amyloid beta (1 to 42) (unknown origin) assessed as disruption of Co2 induced aggregation at 66.7 uM irradiated with UVA-LED for 1 hr by immunoblotting analysis. On the technique in general: A western blot detects proteins with antibodies after separation by electrophoresis.

Series [4] has the same target. The series can be described thus: Photo-degradation of Amyloid beta (1 to 42) (unknown origin) assessed as disruption of Co2 induced aggregation at 66.7 uM irradiated with UVA-LED measured after 5 mins by immunoblotting analysis.

Molecules are shown by their SMILES. Active and inactive are the calls of the source. No cut-off for these calls is given here.

Data on 1 molecule can be found in ChEMBL document CHEMBL4823306, “Synthesis of D-π-A type benzothiazole-pyridinium salt composite and its application as photo-degradation agent for amyloid fibrils” (Bioorg Med Chem Lett, 2021).

Chain of Amyloid-beta precursor protein (Homo sapiens) (P05067 whole entry): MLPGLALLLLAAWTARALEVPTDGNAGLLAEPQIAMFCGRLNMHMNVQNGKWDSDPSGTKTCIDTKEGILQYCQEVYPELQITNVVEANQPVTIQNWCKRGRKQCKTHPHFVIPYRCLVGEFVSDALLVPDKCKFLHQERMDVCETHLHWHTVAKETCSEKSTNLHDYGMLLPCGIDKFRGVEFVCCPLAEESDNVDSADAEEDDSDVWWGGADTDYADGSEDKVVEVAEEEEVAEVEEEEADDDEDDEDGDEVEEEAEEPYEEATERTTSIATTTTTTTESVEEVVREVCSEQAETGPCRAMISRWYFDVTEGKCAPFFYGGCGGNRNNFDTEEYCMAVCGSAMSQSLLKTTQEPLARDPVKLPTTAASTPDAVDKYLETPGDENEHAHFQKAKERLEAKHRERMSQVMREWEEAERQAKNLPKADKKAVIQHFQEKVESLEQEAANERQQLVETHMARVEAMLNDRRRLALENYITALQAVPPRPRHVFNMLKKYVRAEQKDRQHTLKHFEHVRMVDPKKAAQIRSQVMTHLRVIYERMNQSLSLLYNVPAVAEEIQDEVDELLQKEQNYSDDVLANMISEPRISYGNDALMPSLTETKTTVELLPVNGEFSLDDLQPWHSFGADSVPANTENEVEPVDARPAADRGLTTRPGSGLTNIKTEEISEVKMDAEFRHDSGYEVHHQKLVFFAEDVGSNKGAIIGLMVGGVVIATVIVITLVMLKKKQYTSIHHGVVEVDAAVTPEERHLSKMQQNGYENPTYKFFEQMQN

`CC[n+]1ccc(-c2ccc(-c3nc4ccccc4s3)cc2)cc1.[Br-]`: the Activity result in series [1] was “Non-Toxic”; in series [2] it was “Toxic”. Besides, the inhibition result in series [3] and in series [4] was “Active” each time.
